One series concerns cucumber anthracnose. In words: In vivo protection activity against cucumber anthracnose (live pot determination). The following applies: dose of 400 ppm. How it is done:
(§1) The test of in vivo protection effect is conducted on various fungal diseases of plants through samples of the compounds of the present invention. The determination results of the fungal activity are shown in the following embodiments.
(§2) The determination method is as follows: the to-be-determined sample of the compound of general formula I obtained above was dissolved with a small amount of solvent (the type of the solvent is, for example, acetone, methanol, DMF, etc., and is selected according to the dissolving ability to the sample; and the volume ratio of the solvent amount to the liquid spray amount is equal to or less than 0.05) by a live pot determination method, and diluted with water containing 0.1% Tween 80 to prepare to-be-determined liquid with required concentration. On a crop sprayer, the to-be-determined liquid was sprayed onto disease host plants (the host plants are standard potted seedlings cultivated in a greenhouse), and the disease was inoculated after 24 hours. According to the characteristics of the disease, the diseased plants that need to be cultivated under temperature control and moisturizing were inoculated and then placed in an artificial climate chamber for cultivation. […] After full onset through control (usually one week), the disease prevention effect of the compound was evaluated.

The next series deals with cucumber botrytis. In words: In vivo protection activity against cucumber botrytis (live pot determination). The following applies: 200 ppm. How it is done: as §1, §2
For the next series, the system named is wheat powdery mildew. Kind of series: In vivo protection activity against wheat powdery mildew (live pot determination). The note with it: for control effects on wheat powdery mildew: dose of 400 ppm. On the procedure:
as §1, §2

The test system of a further series is corn rust. Kind of series: In vivo protection activity against corn rust (live pot determination). The note with it: for control effects, Corn rust: 400 ppm (Table 4); for control effects on corn rust: dose of 400 ppm. How it is done:
as §1, §2

In another series the test system is cucumber downy mildew. In words: In vivo protection activity against cucumber downy mildew (live pot determination). The following applies: for control effects, Cucumber downy mildew: 400 ppm (Table 2); for control effects on cucumber downy mildew: dose of 400 ppm, spray, inoculated after 24 hours. How it is done:
as §1, §2

A further series has as its system tomato botrytis. Kind of series: In vivo protection activity against tomato botrytis (live pot determination). How it is done: as §1, §2

Regarding `Cc1cc(OC(C)C)ccc1C(=O)C(C)(C)NC(=O)c1c(C(F)(F)F)nn(C)c1Cl` [CK4], the “control effects on cucumber anthracnose” value in the series on cucumber anthracnose came out at 0%. Further, the “Control effects on cucumber botrytis (%)” value in the series with cucumber botrytis is on record as 25%. In addition, in the series on wheat powdery mildew (400 ppm (Table 3)), the “control effects, Wheat powdery mildew” value came to 75. In addition, the “control effects on wheat powdery mildew” value with wheat powdery mildew is listed as 75%. Also, in the series with corn rust, the “control effects, Corn rust” value turned out to be 0 and the “control effects on corn rust” value was 0%. In addition, in the series on cucumber downy mildew, the “control effects, Cucumber downy mildew” value came out at 0 and the “control effects on cucumber downy mildew” value is given as 0%. Also, the “Control effects on tomato botrytis (%)” value in the series on tomato botrytis (25 ppm) was 0%. Further, the “Control effects on tomato botrytis (%)” value with tomato botrytis (100 ppm) is 0%.

In the case of `Cc1cc(OC(C)C)ccc1C(=O)C(C)(C)NC(=O)c1cccnc1Cl` [CK2], the “control effects on cucumber anthracnose” value in the series with cucumber anthracnose is 0%. In addition, in the series with cucumber botrytis, the “Control effects on cucumber botrytis (%)” value was 0%. Besides, the “control effects, Wheat powdery mildew” value in the series with wheat powdery mildew (400 ppm (Table 3)) was found to be 85. The “control effects on wheat powdery mildew” value in the series on wheat powdery mildew was found to be 85%. In the series with corn rust, the “control effects, Corn rust” value is on record as 0 and the “control effects on corn rust” value was 0%. In the series with cucumber downy mildew, the “control effects, Cucumber downy mildew” value came to 0 and the “control effects on cucumber downy mildew” value came out at 0%. For the same compound, the “Control effects on tomato botrytis (%)” value in the series on tomato botrytis (25 ppm) turned out to be 0%. Also, the “Control effects on tomato botrytis (%)” value in the series on tomato botrytis (100 ppm) was 20%.

As a reminder, the melting point is the temperature, or range, at which the solid turns liquid. In turn, `Cc1cc(OC(C)C)ccc1C(=O)C(C)(C)NC(=O)c1cccnc1C(F)F` [Compound I-2] had a melting point of 96.9 °C. The “control effects, Wheat powdery mildew” value with wheat powdery mildew (100 ppm (Table 3)) is listed as 100. For the same compound, the “control effects, Wheat powdery mildew” value in the series on wheat powdery mildew (400 ppm (Table 3)) was 100. Further, the “control effects, Cucumber downy mildew” value in the series on cucumber downy mildew amounted to 40.

For `Cc1cc(OC(C)C)ccc1C(=O)C(C)(C)NC(=O)c1cccnc1C(F)(F)F` [CK1], the “control effects on cucumber anthracnose” value in the series on cucumber anthracnose was found to be 0%. Moreover, the “Control effects on cucumber botrytis (%)” value in the series on cucumber botrytis worked out at 0%. In the series on wheat powdery mildew (400 ppm (Table 3)), the “control effects, Wheat powdery mildew” value was 85. The “control effects on wheat powdery mildew” value in the series with wheat powdery mildew is listed as 85%. Further, in the series on corn rust, the “control effects, Corn rust” value turned out to be 0 and the “control effects on corn rust” value came out at 0%. Besides, in the series with cucumber downy mildew, the “control effects, Cucumber downy mildew” value was 0 and the “control effects on cucumber downy mildew” value is on record as 0%.

As to `Cc1cc(OC(C)C)ccc1C(=O)C(C)(C)NC(=O)c1cn(C)nc1C(F)(F)F` [CK3], the “control effects on cucumber anthracnose” value in the series on cucumber anthracnose is reported as 0%. Besides, in the series with cucumber botrytis, the “Control effects on cucumber botrytis (%)” value is reported as 60%. In addition, in the series with wheat powdery mildew (400 ppm (Table 3)), the “control effects, Wheat powdery mildew” value is reported as 85. Also, the “control effects on wheat powdery mildew” value in the series with wheat powdery mildew is given as 85%. In the series with corn rust, the “control effects, Corn rust” value is recorded as 0 and the “control effects on corn rust” value stood at 0%. Besides, in the series with cucumber downy mildew, the “control effects, Cucumber downy mildew” value is 0 and the “control effects on cucumber downy mildew” value was 0%. Moreover, the “Control effects on tomato botrytis (%)” value in the series with tomato botrytis (25 ppm) was found to be 20%. Also, in the series with tomato botrytis (100 ppm), the “Control effects on tomato botrytis (%)” value was found to be 35%.

These data come from patent US20230167062A1, “AMIDE COMPOUND CONTAINING SUBSTITUTED ACETOPHENONE STRUCTURAL FRAGMENTS AND PREPARATION METHOD AND APPLICATION THEREOF” (SHENYANG SINOCHEM AGROCHEMICALS R&D CO., LTD., priority 2019, published 2023).
